Molecules are shown by their SMILES.

By melting point is commonly meant the temperature, or range, at which the solid turns liquid.

For the compound `O=C(O)c1cccnc1-c1cccc(-c2ccc(Cl)cc2)n1` [Chemical Example 3, 6′-(4-Chlorophenyl)-2,2′-bipyridine-3-carboxylic acid], the melting point turned out to be 221 °C. In the case of `COC(=O)c1cccnc1-c1cccc(-c2ccc(Cl)cc2)n1` [Chemical Example 2, Methyl 6′-(4-chlorophenyl)-2,2′-bipyridine-3-carboxylate] it was 120.5 °C.

For the origin of these results see patent US9409881B2, “Herbicidally active 6′-phenyl-2,2′-bipyridine-3-carboxylic acid derivatives” (BAYER CROPSCIENCE AG, priority 2012, dated 2016).
